Laboratory results: patent US20210238162A1, “CHEMICAL COMPOUNDS” (GlaxoSmithKline Intellectual Property Development Limited, priority 2015, published 2021)
Where two headings read alike, the source gives them in different places.

Target: T1, haematopoietic prostaglandin D synthase (H-PGDS) (Homo sapiens, UniProt O60760)
T1 construct: Full length human H-PGDS cDNA (Invitrogen Ultimate ORF IOH13026) was amplified by PCR; made in house; host or cells: E. coli BL21 (DE3*), vector pET22b+
Test: H-PGDS RapidFire High Throughput Mass Spectrometry Assay
Assay type: biochemical
Description: The H-PGDS RapidFire™ mass spectrometric assay monitors conversion of prostaglandin H2 (PGH2) to prostaglandin D2 (PGD2) by haematopoietic prostaglandin D synthase (H-PGDS). In the assay format described here, the substrate (PGH2) is formed in situ by the action of cyclooxygenase-2 on arachidonic acid. This first step is set up to be fast, and generates a burst of PGH2 at ˜10 μM. The PGH2 is then further converted to PGD2 by the H-PGDS enzyme. […] Plates are then read on the RapidFire™ high throughput solid phase extraction system (Agilent) which incorporates a solid phase extraction step coupled to a triple quadrupole mass spectrometer (AB SCIEX). Relative levels of PGD2 and PGF2α, which acts as a surrogate for substrate, are measured and a percent conversion calculated.
Full length human H-PGDS cDNA (Invitrogen Ultimate ORF IOH13026) was amplified by PCR with the addition of a 5′ 6-His tag and TEV protease cleavage site. The PCR product was digested with Ndel and Xhol and ligated into pET22b+ (Merck Novagen®). Expression was carried out in E. coli strain BL21 (DE3*) using auto-induction Overnight Express™ Instant TB medium (Merck Novagen®) supplemented with 1% glycerol. The culture was first grown at 37° C. and the temperature was reduced to 25° C. when OD600 reached 2.0. Cells were harvested by centrifugation after a further 18 hr. 10 g of E. coli cell pellet was suspended to a total volume of 80 mL in lysis buffer (20 mM Tris-Cl pH 7.5, 300 mM NaCl, 20 mM imidazole, 5 mM β-mercaptoethanol, 10% glycerol). 1 mg/mL protease inhibitors (Protease Inhibitor Cocktail Set Ill, Merck Calbiochem®) and 1 mg/mL lysozyme were added to the cell suspension. The suspension was then sonicated for 5 min (UltraSonic Processor VCX 750, Cole-Parmer Instrument Co.) with a micro probe (50% amplitude, 10 sec on/off) and then centrifuged at 100,000 g for 90 min (at 4° C.). The supernatant was loaded onto a Ni-NTA HiTrap column (5 mL, GE Heathcare, pre-equilibrated in lysis buffer). The column was washed with 10 column volumes of lysis buffer and eluted with lysis buffer containing 500 mM imidazole. The pooled protein peak fractions were concentrated using a 10 kDa centrifugal filter at 3500 g and 4° C. (Amicon Ultra-15 centrifugal filter unit with Ultracel-10 membrane from Millipore). Further purification of the concentrated protein was carried out using gel filtration chromatography on a HiLoad 26/600 Superdex 75 preparative grade column (GE Healthcare Life Sciences) using 50 mM Tris pH 7.5, 50 mM NaCl, 1 mM dithiothreitol, 1 mM MgCl2. Fractions containing the protein were pooled, concentrated as described above, and stored at −80° C.
The full length human COX-2 gene (accession number L15326) was amplified by PCR to generate an EcoRI-HindIII fragment containing an in-frame FLAG tag. This was subcloned into pFastBac 1 (Invitrogen). The COX2 FLAG plasmid was recombined into the baculovirus genome according to the BAC-to-BAC protocol described by Invitrogen. Transfection into Spodoptera frugiperda (Sf9) insect cells was performed using Cellfectin (Invitrogen), according to the manufacturer's protocol. […] Recombinant virus was added at a Multiplicity of Infection (MOI) of 5 and the culture was allowed to continue for 3 days. Cells were harvested using a continuous feed centrifuge run at 2500 g at a rate of approximately 2 L/min with cooling. The resultant cell slurry was re-centrifuged in pots (2500 g, 20 min, 4° C.) and the cell paste was stored at −80° C. […] The suspension was sonicated in 500 mL batches for 8×5 seconds at 10 u amplitude with the medium tip of an MSE probe sonicator and subsequently incubated at 4° C. for 90 min with gentle stirring. The lysate was centrifuged at 12000 rpm for 45 min at 4° C. in a Sorvall SLA1500 rotor. The supernatant (1400 mL) was added to 420 mL of 20 mM Tris-Cl pH 7.4, 150 mM NaCl, 0.1 mM EDTA to reduce the concentration of n-octyl-β-D-glucopyranoside to 1% w/v.

[1] = H-PGDS RapidFire MS assay, mean pIC50, read-out: Potency Range (mean pIC50) (converted)

T1 sequence (O60760 whole entry): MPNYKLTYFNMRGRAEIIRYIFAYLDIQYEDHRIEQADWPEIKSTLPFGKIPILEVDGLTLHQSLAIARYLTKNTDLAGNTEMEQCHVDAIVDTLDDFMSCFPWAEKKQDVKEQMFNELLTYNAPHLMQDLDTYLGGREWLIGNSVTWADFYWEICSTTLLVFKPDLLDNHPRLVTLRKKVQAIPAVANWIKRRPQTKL

Compound `CC(C)(O)[C@H]1CC[C@H](NC(=O)c2cnc3cc(OC(F)F)c(F)cc3c2)CC1` [Example 51, 7-(Difluoromethoxy)-6-fluoro-N-(trans-4-(2-hydroxypropan-2-yl)cyclohexyl)quinoline-3-carboxamide] has an IC50 [1] of 10 to 79.4 nM.
`O=C(N[C@H]1CCC[C@H]1O)c1cnc2cc(OC(F)F)c(F)cc2c1` [Example 52, 7-(Difluoromethoxy)-6-fluoro-N-((1S,2R)-2-hydroxycyclopentyl)quinoline-3-carboxamide] was tested, and the IC50 [1] was 100 to 1000 nM.
Work on `O=C(N[C@H]1CCN(CC2CC2)C1=O)c1cnc2cc(OC(F)F)c(F)cc2c1` [Example 53, (S)—N-(1-(Cyclopropylmethyl)-2-oxopyrrolidin-3-yl)-7-(difluoromethoxy)-6-fluoroquinoline-3-carboxamide] yielded an IC50 [1] of 10 to 79.4 nM.
Compound `O=C1CC(NC(=O)c2cnc3cc(OC(F)F)c(F)cc3c2)c2ccccc2N1` (stereo not drawn) [Example 54, 7-(Difluoromethoxy)-6-fluoro-N-(2-oxo-1,2,3,4-tetrahydroquinolin-4-yl)quinoline-3-carboxamide] has an IC50 [1] of 10 to 79.4 nM.
Work on `CO[C@H]1CC[C@H](NC(=O)c2cnc3cc(OC(F)F)c(F)cc3c2)CC1` [Example 55, 7-(Difluoromethoxy)-6-fluoro-N-(trans-4-methoxycyclohexyl)quinoline-3-carboxamide] yielded an IC50 [1] of 10 to 79.4 nM.
Work on `CS(=O)(=O)N[C@H]1CC[C@H](NC(=O)c2cnc3cc(OC(F)F)c(F)cc3c2)CC1` [Example 56, 7-(Difluoromethoxy)-6-fluoro-N-(trans-4-(methylsulfonamido)cyclohexyl)quinoline-3-carboxamide] yielded an IC50 [1] of 10 to 79.4 nM.
With `CC(N[C@H]1CC[C@H](NC(=O)c2cnc3cc(OC(F)F)c(F)cc3c2)CC1)C(F)(F)F` (stereo partly drawn) [Example 57, 7-(Difluoromethoxy)-6-fluoro-N-(trans-4-((1,1,1-trifluoropropan-2-yl)amino)cyclohexyl)quinoline-3-carboxamide] the IC50 [1] was 10 to 79.4 nM.
Compound `O=C(NC1CCN(CC(F)(F)F)CC1)c1cnc2cc(OC(F)F)c(F)cc2c1` [Example 58, 7-(Difluoromethoxy)-6-fluoro-N-(1-(2,2,2-trifluoroethyl)piperidin-4-yl)quinoline-3-carboxamide] has an IC50 [1] of 10 to 79.4 nM.
`O=C(N[C@H]1C[C@H](NCC(F)(F)F)C1)c1cnc2cc(OC(F)F)c(F)cc2c1` [Example 59, 7-(Difluoromethoxy)-6-fluoro-N-(trans-3-((2,2,2-trifluoroethyl)amino)cyclobutyl)quinoline-3-carboxamide] was tested, and the IC50 [1] was 10 to 79.4 nM and the IC50 (in at least one experimental run, read-out: H-PGDS pIC50 value (converted)) was 50.1 nM.
For `CC(C)(O)CO[C@H]1CC[C@H](NC(=O)c2cnc3cc(OC(F)F)c(F)cc3c2)CC1` [Example 60, 7-(Difluoromethoxy)-6-fluoro-N-(trans-4-(2-hydroxy-2-methylpropoxy)cyclohexyl)quinoline-3-carboxamide], the IC50 [1] was 10 to 79.4 nM.
Work on `C[C@@H](N[C@H]1CC[C@H](NC(=O)c2cnc3cc(OC(F)F)c(F)cc3c2)CC1)C(F)(F)F` [Example 62, 7-(Difluoromethoxy)-6-fluoro-N-(trans-4-(((R)-1,1,1-trifluoropropan-2-yl)amino)cyclohexyl)quinoline-3-carboxamide] yielded an IC50 [1] of 10 to 79.4 nM.
`C[C@H](N[C@H]1CC[C@H](NC(=O)c2cnc3cc(OC(F)F)c(F)cc3c2)CC1)C(F)(F)F` [Example 63, 7-(Difluoromethoxy)-6-fluoro-N-(trans-4-(((S)-1,1,1-trifluoropropan-2-yl)amino)cyclohexyl)quinoline-3-carboxamide] showed an IC50 [1] of less than 10 nM.
In the case of `O=C(N[C@@H]1CC[C@@H](NCC(F)(F)F)C1)c1cnc2cc(OC(F)F)c(F)cc2c1` [Example 64, 7-(difluoromethoxy)-6-fluoro-N-((1R,3R)-3-((2,2,2-trifluoroethyl)amino)cyclopentyl)quinoline-3-carboxamide], the IC50 [1] is reported as 10 to 79.4 nM.
For `O=C(NC1CCN(CC(F)F)CC1)c1cnc2cc(OC(F)F)c(F)cc2c1` [Example 65, N-(1-(2,2-Difluoroethyl)piperidin-4-yl)-7-(difluoromethoxy)-6-fluoroquinoline-3-carboxamide], the IC50 [1] was 10 to 79.4 nM.
